Measured values as given in patent publication US5807535A, “Metal complexes of hydroxyaryl containing aminocarboxylic acid chelating agents” (Australian Nuclear Science & Technology Organisation, priority 1992, dated 1998).
Read-outs that look alike come from different tables or passages of the source.

Tests used:
[1] = Biodistribution of 99mTc complexes in rats; assay type: in vivo, Australian Albino Wistar Rats; settings: for tissue uptake at 0.5 min / tissue uptake at 1 min / tissue uptake at 0.05 h / tissue uptake at 5 min / tissue uptake at 10 min: rat; for tissue uptake at 0.5 min: 30 sec
How it was run: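 Chelators were dissolved in basic saline, brought to about pH 6 with HCl, and reduced with excess stannous chloride before one equivalent volume of sodium 99mTcO4 (10-50 mCi/ml) was added, giving roughly 1 mg/ml chelator. Labelling efficacy was checked by ITLC-SG. Complexes were diluted in saline to 15 μCi/100 μl for rat biodistribution, with tissue uptake expressed as %ID/g.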

[2] = Biodistribution of 67Ga complexes in mice; assay type: in vivo, balb/c mice
How it was run: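 Ligand labelled with 67Ga citrate at pH 12, 40 °C for 40 min, diluted in saline and filter-sterilised. Balb/c mice given ~3.7×10^5 Bq intravenously via tail vein; five animals sacrificed at each of six time points.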

[3] = blood, rats, read-out: biodistribution blood
[4] = bone, rats, read-out: biodistribution bone
[5] = brain, rats, read-out: biodistribution brain
[6] = eyes, rats, read-out: biodistribution eyes
[7] = heart, rats, read-out: biodistribution heart
[8] = kidneys, rats, read-out: biodistribution kidneys
[9] = liver, rats, read-out: biodistribution liver
[10] = lungs, rats, read-out: biodistribution lungs
[11] = muscle, rats, read-out: biodistribution muscle
[12] = pancreas, rats, read-out: biodistribution pancreas
[13] = skin, rats, read-out: biodistribution skin
[14] = spleen, rats, read-out: biodistribution spleen
[15] = stomach, rats, read-out: biodistribution stomach
[16] = tail, rats, read-out: biodistribution tail
[17] = thymus, rats, read-out: biodistribution thymus
[18] = thyroid, rats, read-out: biodistribution thyroid
[19] = total git, rats, read-out: biodistribution tot GIT

## O=C(O)CN(CCN(CC(=O)O)CC(=O)Nc1ccc(Cl)cc1O)CC(=O)Nc1ccc(Cl)cc1O [Compound 2]
[1]; Tables 2 and 4
  hepatobiliary passage: specifically traverse the hepatobiliary system
[1]; [3]
  tissue uptake at 0.5 min: 2.79 %ID/g
  tissue uptake at 1 min: 2.77 %ID/g
  tissue uptake at 5 min: 0.94 %ID/g
  tissue uptake at 10 min: 0.77 %ID/g
[1]; blood, rats, 3 minutes, selected data, read-out: Blood
  tissue uptake at 0.05 h: 1.32 %ID/g
[1]; [4]
  tissue uptake at 0.5 min: 0.34 %ID/g
  tissue uptake at 1 min: 0.37 %ID/g
  tissue uptake at 5 min: 0.19 %ID/g
  tissue uptake at 10 min: 0.15 %ID/g
[1]; bone, rats, 3 min, read-out: biodistribution bone
  tissue uptake at 0.05 h: 0.25 %ID/g
[1]; [5]
  tissue uptake at 0.5 min: 0.14 %ID/g
  tissue uptake at 1 min: 0.09 %ID/g
  tissue uptake at 5 min: 0.04 %ID/g
  tissue uptake at 10 min: 0.03 %ID/g
[1]; brain, rats, 3 min, read-out: biodistribution brain
  tissue uptake at 0.05 h: 0.06 %ID/g
[1]; [6]
  tissue uptake at 0.5 min: 0.11 %ID/g
  tissue uptake at 1 min: 0.15 %ID/g
  tissue uptake at 5 min: 0.1 %ID/g
  tissue uptake at 10 min: 0.1 %ID/g
[1]; eyes, rats, 3 min, read-out: biodistribution eyes
  tissue uptake at 0.05 h: 0.12 %ID/g
[1]; [7]
  tissue uptake at 0.5 min: 0.87 %ID/g
  tissue uptake at 1 min: 0.93 %ID/g
  tissue uptake at 5 min: 0.36 %ID/g
  tissue uptake at 10 min: 0.28 %ID/g
[1]; heart, rats, 3 min, read-out: biodistribution heart
  tissue uptake at 0.05 h: 0.46 %ID/g
[1]; kidney, rats, 3 minutes, selected data, read-out: Kidney
  tissue uptake at 0.05 h: 8.9 %ID/g
[1]; [8]
  tissue uptake at 0.5 min: 6.42 %ID/g
  tissue uptake at 1 min: 8.37 %ID/g
  tissue uptake at 5 min: 7.26 %ID/g
  tissue uptake at 10 min: 3.35 %ID/g
[1]; kidneys, rats, 3 min, read-out: biodistribution kidneys
  tissue uptake at 0.05 h: 8.9 %ID/g
[1]; [9]
  tissue uptake at 0.5 min: 4.61 %ID/g
  tissue uptake at 1 min: 6.28 %ID/g
  tissue uptake at 5 min: 3.93 %ID/g
  tissue uptake at 10 min: 1.89 %ID/g
[1]; liver, rats, 3 minutes, selected data, read-out: Liver
  tissue uptake at 0.05 h: 5.93 %ID/g
[1]; [10]
  tissue uptake at 0.5 min: 1.2 %ID/g
  tissue uptake at 1 min: 1.17 %ID/g
  tissue uptake at 5 min: 0.59 %ID/g
  tissue uptake at 10 min: 0.48 %ID/g
[1]; lungs, rats, 3 min, read-out: biodistribution lungs
  tissue uptake at 0.05 h: 0.79 %ID/g
[1]; [11]
  tissue uptake at 0.5 min: 0.22 %ID/g
  tissue uptake at 1 min: 0.24 %ID/g
  tissue uptake at 5 min: 0.16 %ID/g
  tissue uptake at 10 min: 0.11 %ID/g
[1]; muscle, rats, 3 min, read-out: biodistribution muscle
  tissue uptake at 0.05 h: 0.2 %ID/g
[1]; [12]
  tissue uptake at 0.5 min: 0.49 %ID/g
  tissue uptake at 1 min: 0.66 %ID/g
  tissue uptake at 5 min: 0.52 %ID/g
  tissue uptake at 10 min: 0.27 %ID/g
[1]; pancreas, rats, 3 min, read-out: biodistribution pancreas
  tissue uptake at 0.05 h: 0.44 %ID/g
[1]; [13]
  tissue uptake at 0.5 min: 0.29 %ID/g
  tissue uptake at 1 min: 0.45 %ID/g
  tissue uptake at 5 min: 0.35 %ID/g
  tissue uptake at 10 min: 0.33 %ID/g
[1]; skin, rats, 3 min, read-out: biodistribution skin
  tissue uptake at 0.05 h: 0.42 %ID/g
[1]; [14]
  tissue uptake at 0.5 min: 0.62 %ID/g
  tissue uptake at 1 min: 0.58 %ID/g
  tissue uptake at 5 min: 0.25 %ID/g
  tissue uptake at 10 min: 0.16 %ID/g
[1]; spleen, rats, 3 min, read-out: biodistribution spleen
  tissue uptake at 0.05 h: 0.33 %ID/g
[1]; [15]
  tissue uptake at 0.5 min: 0.41 %ID/g
  tissue uptake at 1 min: 0.68 %ID/g
  tissue uptake at 5 min: 0.98 %ID/g
  tissue uptake at 10 min: 0.9 %ID/g
[1]; stomach, rats, 3 min, read-out: biodistribution stomach
  tissue uptake at 0.05 h: 2.08 %ID/g
[1]; [16]
  tissue uptake at 0.5 min: 0.81 %ID/g
  tissue uptake at 1 min: 0.66 %ID/g
  tissue uptake at 5 min: 1.16 %ID/g
  tissue uptake at 10 min: 0.55 %ID/g
[1]; tail, rats, 3 min, read-out: biodistribution tail
  tissue uptake at 0.05 h: 0.64 %ID/g
[1]; [17]
  tissue uptake at 0.5 min: 0.39 %ID/g
  tissue uptake at 1 min: 0.37 %ID/g
  tissue uptake at 5 min: 0.17 %ID/g
  tissue uptake at 10 min: 0.15 %ID/g
[1]; thymus, rats, 3 min, read-out: biodistribution thymus
  tissue uptake at 0.05 h: 0.27 %ID/g
[1]; [18]
  tissue uptake at 0.5 min: 1.41 %ID/g
  tissue uptake at 1 min: 1.71 %ID/g
  tissue uptake at 5 min: 0.58 %ID/g
  tissue uptake at 10 min: 0.44 %ID/g
[1]; thyroid, rats, 3 min, read-out: biodistribution thyroid
  tissue uptake at 0.05 h: 0.81 %ID/g
[1]; [19]
  tissue uptake at 0.5 min: 0.48 %ID/g
  tissue uptake at 1 min: 0.58 %ID/g
  tissue uptake at 5 min: 2.27 %ID/g
  tissue uptake at 10 min: 3.18 %ID/g
[1]; total git, rats, 3 min, read-out: biodistribution tot GIT
  tissue uptake at 0.05 h: 1.56 %ID/g
[1]; rats
  liver versus kidney uptake: preference for the liver uptake as opposed to the kidney
[1]; rats, 3 min
  biodistribution blood: 1.32 % Injected dose per gram
  biodistribution liver: 5.93 % Injected dose per gram
[2]; 1 min
  biodistribution bone: 6.16 % ID
  biodistribution kidney: 9.54 % ID
  biodistribution liver: 24.9 % ID
  biodistribution lungs: 1.79 % ID
  biodistribution muscle: 20.55 % ID
  biodistribution skin: 11.55 % ID
  biodistribution spleen: 0.29 % ID
[2]; 3 min
  biodistribution bone: 2.82 % ID
  biodistribution kidney: 4.62 % ID
  biodistribution liver: 35.52 % ID
  biodistribution lungs: 0.56 % ID
  biodistribution muscle: 8.63 % ID
  biodistribution skin: 9.27 % ID
  biodistribution spleen: 0.1 % ID
[2]; 5 min
  biodistribution bone: 2.13 % ID
  biodistribution kidney: 3.52 % ID
  biodistribution liver: 33.09 % ID
  biodistribution lungs: 0.41 % ID
  biodistribution muscle: 5.50 % ID
  biodistribution skin: 8.04 % ID
  biodistribution spleen: 0.07 % ID
[2]; 10 min
  biodistribution bone: 0.74 % ID
  biodistribution kidney: 1.00 % ID
  biodistribution liver: 23.34 % ID
  biodistribution lungs: 0.12 % ID
  biodistribution muscle: 2.00 % ID
  biodistribution skin: 3.80 % ID
  biodistribution spleen: 0.02 % ID
[2]; 30 min
  biodistribution bone: 0.50 % ID
  biodistribution kidney: 0.21 % ID
  biodistribution liver: 3.7 % ID
  biodistribution muscle: 2.00 % ID
  biodistribution skin: 0.88 % ID
  biodistribution spleen: 0.02 % ID
[2]; 120 min
  biodistribution bone: 0.38 % ID
  biodistribution kidney: 0.01 % ID
  biodistribution liver: 0.92 % ID
  biodistribution muscle: 0.31 % ID
  biodistribution skin: 0.17 % ID
  biodistribution spleen: 0 % ID
